What was measured:
[1] = biological target: T1, recombinant human proteasome β1 subunit (Homo sapiens, UniProt P28072); experiment: Surface plasmon resonance (Biacore) binding assay
T1 construct: His-Tag; made in house; host or cells: Escherichia coli
T1 sequence (P28072 1-239): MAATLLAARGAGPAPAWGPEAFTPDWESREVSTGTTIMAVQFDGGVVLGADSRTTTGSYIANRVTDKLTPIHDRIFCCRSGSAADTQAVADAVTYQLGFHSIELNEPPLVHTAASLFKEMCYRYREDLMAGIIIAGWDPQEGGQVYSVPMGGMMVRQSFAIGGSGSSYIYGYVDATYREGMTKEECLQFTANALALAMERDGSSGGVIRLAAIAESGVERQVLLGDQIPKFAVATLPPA
Experimental: The recombinant human proteasome β1 subunit, product of PSMB6 gene, was expressed as His-Tag proteins using Escherichia coli, and then purified by affinity chromatography as reported in our previous study. The binding affinities of fangchinoline or tetrandrine to recombinant proteasome catalytic β1 subunit, were assayed in vitro using an Biacore 3000 instrument (Biacore AB, Rapsgatan 7, S-754 50 Uppsala, Sweden) as reported before. Briefly, recombinant proteasome β1 subunit protein was immobilized on a CM5 sensor chip as ligand in 11624.5 RU with N-ethyl-N’-(3-dimethylaminopropyl) carbodiimide and N-hydroxysuccinimide according to the standard primary amine-coupling procedures, and HBS-EP (10 mM HEPES, 150 mM NaCl, 3 mM EDTA, 0.005% (v/v) surfactant P20, pH 7.4) was used as the running buffer. Equilibration of the baseline was performed by a continuous flow of HBS-EP through the chip surface for 1 to 2 h. Biacore data were collected at 25°C with HBS-EP as the running buffer at a constant flow of 20 μL/min. Fangchinoline or tetradrine was serially diluted into the running buffer to 0, 2.4, 3.43, 4.90, 7.0, 10 and 20 μM. The samples were injected into the channels at a flow rate of 20 μL/min, followed by washing with the running buffer. The binding responses were recorded continuously in response units (RU) at a frequency of 1Hz as sensorgrams and presented as a function of time. The association (k a) and dissociation (k d) rate constants, the equilibrium dissociation constant ( KD=kd/ka ) were determined by analysis of the sensorgram-curves obtained at different concentrations of the compound by use of BIA evaluation software version 3.1 (Biacore) and the 1:1 Langmuir binding fitting model.

[2] = biological target: T1, recombinant human proteasome β1 subunit; experiment: Enzyme activity of recombinant proteasome catalytic β1 subunit (Z-LLE-AMC); assay type: biochemical; settings: 50 μM Z-LLE-AMC, 2 h incubation
Experimental: Briefly, catalytic activity of the recombinant human proteasome β1 subunit was assayed by adding recombinant β1 subunit protein (30 μg) to 100 μL of proteasome activity assay buffer (10 mM Tris-HCL, pH 7.8, 5 mM adenosine triphosphate, 0.5 mM dithiothreitol and 5 mM MgCL2•6H2O) containing 50 μM Z-LLE-AMC in the presence of fangchinoline or tetrandrine at different concentrations or not. The hydrolase activity of the proteasome catalytic β1 subunit could release the fluorogenic AMC component from substrate Z-LLE-AMC and the AMC release was measured after 2 h incubation using a Microplate Reader Bio-Rad 550 with excitation and emission wavelengths of 360 and 465 nm, respectively.

With COc1ccc2cc1Oc1ccc(cc1)C[C@H]1c3cc(c(OC)cc3CCN1C)Oc1c(OC)c(OC)cc3c1[C@H](C2)N(C)CC3 [tetrandrine, reference compound] the “Dissociation (k d)” value ([1]; Biacore, 25°C, 1:1 Langmuir model) was 0.0162 S^-1, the Kd ([1]; Biacore, 25°C, 1:1 Langmuir model, read-out: Equilibrium dissociation (K D)) was 5.61 µM and the kon ([1]; pH 7.4, read-out: Association (k a)) was 2890 M⁻¹ s⁻¹. The “Inhibition of enzyme activity of recombinant proteasome β1 subunit” value [2] was “directly inhibit”.

Reference: paper PMC4626104, “Inhibition on Proteasome β1 Subunit Might Contribute to the Anti-Cancer Effects of Fangchinoline in Human Prostate Cancer Cells” (PLoS ONE, 2015)
